# Key:
# [1] = system: Proteus species C73-33; experiment: antibacterial activity (Minimum Inhibitory Concentration); type: cell-based; conditions: Proteus species C73-33; read-out: MIC
# [2] = system: Proteus species C73-23; experiment: as above; type: cell-based; conditions: Proteus species C73-23; read-out: MIC
# [3] = system: E. coli HL-1629 (Kanamycin-resistant strain); experiment: microbe, parasite or virus in culture; type: cell-based; conditions: Escherichia coli, read-out: inhibitory zone diameter
# [4] = system: Staphylococcus aureus C73-21; experiment: antibacterial activity (Minimum Inhibitory Concentration); type: cell-based; conditions: C7321; Staphylococcus aureus C73-21; read-out: MIC
# [5] = system: Staphylococcus aureus C73-4; experiment: as above; type: cell-based; conditions: C734; Staphylococcus aureus C73-4; read-out: MIC
# [6] = system: Shigella dysenteriae Shigae; experiment: microbe, parasite or virus in culture; type: cell-based
# [7] = system: Salmonella species C73-30; experiment: antibacterial activity (Minimum Inhibitory Concentration); type: cell-based; conditions: C7330
# [8] = system: Klebsiella 6; experiment: paper disk method, inhibitory zone diameter; type: cell-based; conditions: Klebsiella, 6
# [9] = system: Vibrio parahaemolyticus K-5; experiment: antibacterial activity (Minimum Inhibitory Concentration); type: cell-based; conditions: K5; Vibrio parahaemolyticus K-5; read-out: MIC
# [10] = system: Bacillus subtilis ATCC 6633; experiment: as above; type: cell-based; conditions: ATCC6633; Bacillus subtilis ATCC 6633; read-out: MIC
# [11] = system: E. coli K-12; experiment: paper disk method, inhibitory zone diameter; type: cell-based; conditions: Escherichia coli, K12, read-out: inhibitory zone diameter
# [12] = system: Bacillus anthracis No. 119; experiment: microbe, parasite or virus in culture; type: cell-based
# [13] = system: Proteus species C73-34; experiment: antibacterial activity (Minimum Inhibitory Concentration); type: cell-based; conditions: Proteus species C73-34; read-out: MIC
# [14] = system: microorganisms indicated; experiment: antimicrobial activities, paper disk method (general statement); type: cell-based; conditions: Tables 1 to 4
# Method: The inhibitory activities were determined at various concentrations of the compounds using the paper disk method against the microorganisms indicated and the numerical values show the inhibitory zone diameter in terms of mm.
# [15] = system: E. coli C73-12; experiment: antibacterial activity (Minimum Inhibitory Concentration); type: cell-based; conditions: Escherichia coli, C7312
# [16] = system: E. coli C73-4; experiment: as above; type: cell-based; conditions: Escherichia coli, C734; E. coli C73-4; read-out: MIC
# [17] = system: Staphylococcus aureus 209P JC-1; experiment: as above; type: cell-based; conditions: Staphylococcus aureus 209P JC-1; read-out: MIC
# [18] = system: Enterococcus species C73-17; experiment: as above; type: cell-based; conditions: C7317; Enterococcus species C73-17; read-out: MIC
# [19] = system: Enterococcus species C73-33; experiment: as above; type: cell-based; conditions: C7333; Enterococcus species C73-33; read-out: MIC
# [20] = system: Klebsiella 7; experiment: paper disk method, inhibitory zone diameter; type: cell-based; conditions: Klebsiella, 7
# [21] = system: Staphylococcus aureus 6538P; experiment: paper disk method, inhibitory zone diameter; type: cell-based; conditions: read-out: inhibitory zone diameter
# [22] = system: Staphylococcus albus PCI-1200A; experiment: antibacterial activity (Minimum Inhibitory Concentration); type: cell-based; conditions: PCI1200A; Staphylococcus albus PCI-1200A; read-out: MIC
# [23] = system: Staphylococcus aureus Smith S-424; experiment: as above; type: cell-based; conditions: SMITHS424; Staphylococcus aureus Smith S-424; read-out: MIC
# [24] = system: male ICR mice; experiment: acute toxicity; conditions: intravenous administration, 200 mg/kg
# [25] = system: Proteus morganii Kono; experiment: antibacterial activity (Minimum Inhibitory Concentration); type: cell-based; conditions: Morganella morganii
# [26] = system: Staphylococcus aureus C73-10; experiment: as above; type: cell-based; conditions: C7310; Staphylococcus aureus C73-10; read-out: MIC
# [27] = system: E. coli C73-1; experiment: as above; type: cell-based; conditions: Escherichia coli, C731; E. coli C73-1; read-out: MIC
# [28] = system: Proteus species C73-25; experiment: as above; type: cell-based; conditions: Proteus species C73-25; read-out: MIC
# [29] = system: Staphylococcus aureus No. 26; experiment: as above; type: cell-based; conditions: Staphylococcus aureus No. 26; read-out: MIC
# [30] = system: Vibrio parahaemolyticus K-7; experiment: as above; type: cell-based; conditions: K7; Vibrio parahaemolyticus K-7; read-out: MIC
# [31] = system: Mycobacterium 607; experiment: paper disk method, inhibitory zone diameter; type: cell-based; conditions: Mycobacterium, 607, read-out: inhibitory zone diameter
# [32] = system: Bacillus subtilis ATCC 6633; experiment: paper disk method, inhibitory zone diameter; type: cell-based; conditions: read-out: inhibitory zone diameter
# [33] = system: Vibrio parahaemolyticus K-3; experiment: antibacterial activity (Minimum Inhibitory Concentration); type: cell-based; conditions: K3; Vibrio parahaemolyticus K-3; read-out: MIC
# [34] = 2000 γ/ml, read-out: inhibitory zone diameter
compound,measurement,setting,value
"NC[C@H]1O[C@H](O[C@H]2[C@H](O)C[C@H](N)C[C@@H]2N)[C@H](N)[C@@H](O)[C@@H]1O [6-Deoxyneamine, 6-deoxyneamine]",MIC,[1],100 µg/mL
same,MIC,[2],25 µg/mL
same,zone of inhibition at 500 µg/mL,[3],0 mm
same,zone of inhibition at 1000 µg/mL,[3],12.5 mm
same,zone of inhibition at 2000 µg/mL,[3],18 mm
same,MIC,[4],1.56 µg/mL
same,MIC,[5],6.25 µg/mL
same,MIC,[6],12.5 µg/mL
same,MIC,[7],50 µg/mL
same,zone of inhibition at 250 µg/mL,[8]; 250 γ/ml,0 mm
same,zone of inhibition at 500 µg/mL,[8]; 500 γ/ml,11.1 mm
same,zone of inhibition at 1000 µg/mL,[8]; 1000 γ/ml,14.1 mm
same,zone of inhibition at 2000 µg/mL,[8]; [34],16.4 mm
same,MIC,[9],25 µg/mL
same,MIC,[10],0.78 µg/mL
same,zone of inhibition at 7.8 µg/mL,[11]; 7.8 γ/ml,0 mm
same,zone of inhibition at 15.6 µg/mL,[11]; 15.6 γ/ml,11.2 mm
same,zone of inhibition at 31.2 µg/mL,[11]; 31.2 γ/ml,12.9 mm
same,zone of inhibition at 62.5 µg/mL,[11]; 62.5 γ/ml,16 mm
same,zone of inhibition at 125 µg/mL,[11]; 125 γ/ml,18.2 mm
same,zone of inhibition at 250 µg/mL,[11]; 250 γ/ml,20.3 mm
same,zone of inhibition at 500 µg/mL,[11]; 500 γ/ml,21.9 mm
same,zone of inhibition at 1000 µg/mL,[11]; 1000 γ/ml,25 mm
same,zone of inhibition at 2000 µg/mL,[11]; 2000 γ/ml,26.7 mm
same,MIC,[12],12.5 µg/mL
same,MIC,[13],25 µg/mL
same,antimicrobial activities relative to neamine,[14],superior to those of the parent compound neamine
same,MIC,[15],12.5 µg/mL
same,MIC,[16],25 µg/mL
same,MIC,[17],1.56 µg/mL
same,MIC,[18],50 µg/mL
same,MIC,[19],25 µg/mL
same,zone of inhibition at 250 µg/mL,[20]; 250 γ/ml,0 mm
same,zone of inhibition at 500 µg/mL,[20]; 500 γ/ml,11.2 mm
same,zone of inhibition at 1000 µg/mL,[20]; 1000 γ/ml,15.6 mm
same,zone of inhibition at 2000 µg/mL,[20]; [34],17.5 mm
same,zone of inhibition at 7.8 µg/mL,[21]; 7.8 γ/ml,0 mm
same,zone of inhibition at 15.6 µg/mL,[21]; 15.6 γ/ml,0 mm
same,zone of inhibition at 31.2 µg/mL,[21]; 31.2 γ/ml,10 mm
same,zone of inhibition at 62.5 µg/mL,[21]; 62.5 γ/ml,12 mm
same,zone of inhibition at 125 µg/mL,[21]; 125 γ/ml,15.7 mm
same,zone of inhibition at 250 µg/mL,[21]; 250 γ/ml,18.1 mm
same,zone of inhibition at 500 µg/mL,[21]; 500 γ/ml,20 mm
same,zone of inhibition at 1000 µg/mL,[21]; 1000 γ/ml,22.2 mm
same,zone of inhibition at 2000 µg/mL,[21]; 2000 γ/ml,24.2 mm
same,MIC,[22],3.13 µg/mL
same,MIC,[23],3.13 µg/mL
same,"acute toxicity, survival",[24],all male ICR mice were survived
same,MIC,[25],12.5 µg/mL
same,MIC,[26],6.25 µg/mL
same,MIC,[27],25 µg/mL
same,MIC,[28],6.25 µg/mL
same,MIC,[29],6.25 µg/mL
same,MIC,[30],25 µg/mL
same,zone of inhibition at 62.5 µg/mL,[31]; 62.5 γ/ml,0 mm
same,zone of inhibition at 125 µg/mL,[31]; 125 γ/ml,11 mm
same,zone of inhibition at 250 µg/mL,[31]; 250 γ/ml,16.2 mm
same,zone of inhibition at 500 µg/mL,[31]; 500 γ/ml,21.7 mm
same,zone of inhibition at 1000 µg/mL,[31]; 1000 γ/ml,28.3 mm
same,zone of inhibition at 2000 µg/mL,[31]; 2000 γ/ml,33.6 mm
same,zone of inhibition at 7.8 µg/mL,"[32]; ATCC6633, 7.8 γ/ml",15 mm
same,zone of inhibition at 15.6 µg/mL,"[32]; ATCC6633, 15.6 γ/ml",17.6 mm
same,zone of inhibition at 31.2 µg/mL,"[32]; ATCC6633, 31.2 γ/ml",21.1 mm
same,zone of inhibition at 62.5 µg/mL,"[32]; ATCC6633, 62.5 γ/ml",22.7 mm
same,zone of inhibition at 125 µg/mL,"[32]; ATCC6633, 125 γ/ml",25.6 mm
same,zone of inhibition at 250 µg/mL,"[32]; ATCC6633, 250 γ/ml",28.2 mm
same,zone of inhibition at 500 µg/mL,"[32]; ATCC6633, 500 γ/ml",31.2 mm
same,zone of inhibition at 1000 µg/mL,"[32]; ATCC6633, 1000 γ/ml",33.2 mm
same,zone of inhibition at 2000 µg/mL,"[32]; ATCC6633, 2000 γ/ml",35.7 mm
same,MIC,[33],1.56 µg/mL
